Source: ChEMBL document CHEMBL4145551, “Mitochondria-targeting indolizino[3,2-c]quinolines as novel class of photosensitizers for photodynamic anticancer activity” (Eur J Med Chem, 2018)
The source made the active and inactive calls. The rule behind the calls is not given here.

How the values were obtained:
HeLa [1] = assay: Photocytotoxicity against human HeLa cells assessed as cellular shrinkage up to 10 uM preincubated for 1 hr followed by blue LED light irradiation for 5 mins and measured after 13 hrs by Hoechst 33258 staining based fluorescence microscopic method; type: functional, cell-based
[2] = Induction of singlet oxygen production assessed as photodegradation of DPBF by measuring quantum yield after irradiation with 356 nanometer light by UV-Visible spectroscopic analysis; type: functional
DNA [3] = assay: Induction of Escherichia coli pBR322 DNA cleavage at 20 uM irradiated with blue LED light after 30 mins in presence of hydroxyl radical scavenger mannitol by agarose gel electrophoresis method; type: nucleic-acid assay
HeLa [4] = assay: Photocytotoxicity against human HeLa cells assessed as reduction in cell viability at 2 uM preincubated for 1 hr followed blue LED light irradiation for 5 mins and measured after 24 hrs in presence of singlet oxygen scavenger histidine by MTT assay; type: functional, cell-based
HeLa [5] = assay: Induction of ROS generation in human HeLa cells preincubated for 1 hr followed by blue LED light irradiation for 15 mins by DHE staining based HCS analysis; type: functional, cell-based
HeLa [6] = assay: Photocytotoxicity against human HeLa cells assessed as reduction in cell viability preincubated for 1 hr followed blue LED light irradiation for 10 mins and measured after 24 hrs by MTT assay; type: functional, cell-based; conditions: for IC50: light or radiation study
HeLa [7] = assay: Photocytotoxicity against human HeLa cells assessed as DNA fragmentation up to 10 uM preincubated for 1 hr followed by blue LED light irradiation for 5 mins and measured after 13 hrs by Hoechst 33258 staining based fluorescence microscopic method; type: functional, cell-based
[8] = Dark toxicity in human A549 cells assessed as reduction in cell viability up to 10 uM measured after 24 hrs by MTT assay; type: cell-based; conditions: a549, 24 h
A549 [9] = assay: Photocytotoxicity against human A549 cells assessed as reduction in cell viability preincubated for 1 hr followed blue LED light irradiation for 10 mins and measured after 24 hrs by MTT assay; type: functional, cell-based; conditions: for IC50: A549, light or radiation study
DNA [10] = assay: Induction of Escherichia coli pBR322 DNA cleavage irradiated with blue LED light after 30 mins by agarose gel electrophoresis method; type: nucleic-acid assay
MCF7 [11] = assay: Photocytotoxicity against human MCF7 cells assessed as induction of mitochondrial membrane potential depolarization at 10 uM preincubated for 1 hr followed by blue LED light irradiation for 5 mins by TMRE staining based confocal microscopic method; type: functional, cell-based
[12] = Dark toxicity in human MCF7 cells assessed as reduction in cell viability up to 10 uM measured after 24 hrs by MTT assay; type: cell-based; conditions: mcf7, 24 h
DNA [13] = assay: Induction of Escherichia coli pBR322 DNA cleavage at 20 uM after 30 mins under dark condition by agarose gel electrophoresis method; type: nucleic-acid assay; conditions: 0.5 h
HeLa [14] = assay: Photocytotoxicity against human HeLa cells assessed as induction of mitochondrial membrane potential depolarization at 10 uM preincubated for 1 hr followed by blue LED light irradiation for 5 mins by TMRE staining based confocal microscopic method; type: functional, cell-based
A549 [15] = assay: Photocytotoxicity against human A549 cells assessed as reduction in cell viability preincubated for 1 hr followed blue LED light irradiation for 5 mins and measured after 24 hrs by MTT assay; type: functional, cell-based; conditions: for IC50: A549, light or radiation study
[16] = Drug uptake in human HeLa cell mitochondria at 10 uM after 1 hr by mitotracker red staining based confocal laser scanning microscopic method; type: ADME
HeLa [17] = assay: Photocytotoxicity against human HeLa cells assessed as cell membrane blebbing at 10 uM preincubated for 1 hr followed by blue LED light irradiation for 5 mins by differential interference contrast imaging analysis; type: functional, cell-based
MCF7 [18] = assay: Photocytotoxicity against human MCF7 cells assessed as reduction in cell viability preincubated for 1 hr followed blue LED light irradiation for 5 mins and measured after 24 hrs by MTT assay; type: functional, cell-based; conditions: for IC50: MCF7, light or radiation study
[19] = Dark toxicity in human HeLa cells assessed as reduction in cell viability up to 10 uM measured after 24 hrs by MTT assay; type: cell-based
MCF7 [20] = assay: Photocytotoxicity against human MCF7 cells assessed as reduction in cell viability preincubated for 1 hr followed blue LED light irradiation for 10 mins and measured after 24 hrs by MTT assay; type: functional, cell-based; conditions: for IC50: MCF7, light or radiation study
DNA [21] = assay: Induction of Escherichia coli pBR322 DNA cleavage at 20 uM irradiated with blue LED light after 30 mins in presence of singlet oxygen scavenger sodium azide by agarose gel electrophoresis method; type: nucleic-acid assay
HeLa [22] = assay: Photocytotoxicity against human HeLa cells assessed as chromatin condensation up to 10 uM preincubated for 1 hr followed by blue LED light irradiation for 5 mins and measured after 13 hrs by Hoechst 33258 staining based fluorescence microscopic method; type: functional, cell-based
HeLa [23] = assay: Photocytotoxicity against human HeLa cells assessed as plasma membrane blebbing up to 10 uM preincubated for 1 hr followed by blue LED light irradiation for 5 mins and measured after 13 hrs by Hoechst 33258 staining based fluorescence microscopic method; type: functional, cell-based
DNA [24] = assay: Induction of Escherichia coli pBR322 DNA cleavage at 20 uM irradiated with blue LED light after 30 mins in presence of H2O2 scavenger KI by agarose gel electrophoresis method; type: nucleic-acid assay
HeLa [25] = assay: Photocytotoxicity against human HeLa cells assessed as reduction in cell viability preincubated for 1 hr followed blue LED light irradiation for 5 mins and measured after 24 hrs by MTT assay; type: functional, cell-based; conditions: for IC50: light or radiation study
HeLa [26] = assay: Photocytotoxicity against human HeLa cells assessed as morphological changes at 5 uM preincubated for 1 hr followed by blue LED light irradiation for 10 mins and measured after 2.5 hrs by holotomographic method; type: functional, cell-based
HeLa [27] = assay: Photocytotoxicity against human HeLa cells assessed as cell death at 0.5 uM preincubated for 1 hr followed blue LED light irradiation for 5 mins and measured after 24 hrs by MTT assay relative to control; type: functional

Cc1cccn2c1cc1c3ccccc3nc(-c3cccs3)c12
Activity (HeLa [1]): Active | Activity [2]: 0.42 | Activity (DNA [3]): Active | Activity (HeLa [4]): inactive | Activity (HeLa [5]): Dose-dependent effect | Activity (HeLa [6]): Dose-dependent effect | IC50 (HeLa [6]): 0.55 µM | Activity (HeLa [7]): Active | Activity [8]: Non-Toxic | Activity (A549 [9]): Dose-dependent effect | IC50 (A549 [9]): 1.99 µM | Activity (DNA [10]): Dose-dependent effect | Activity (MCF7 [11]): Active | Activity [12]: Non-Toxic | Activity (DNA [13]): Non-Toxic | Activity (HeLa [14]): Active | Activity (A549 [15]): Dose-dependent effect | IC50 (A549 [15]): 3.38 µM | Drug uptake [16]: Active | Activity (HeLa [17]): Active | Activity (MCF7 [18]): Dose-dependent effect | IC50 (MCF7 [18]): 2.68 µM | Activity [19]: Non-Toxic | Activity (MCF7 [20]): Dose-dependent effect | IC50 (MCF7 [20]): 1.39 µM | Activity (DNA [21]): inactive | Activity (HeLa [22]): Active | Activity (HeLa [23]): Active | Activity (DNA [24]): inactive | Activity (HeLa [25]): Dose-dependent effect | IC50 (HeLa [25]): 1.17 µM

c1csc(-c2nc3ccccc3c3cc4ccccn4c23)c1
Activity (HeLa [1]): Active | Activity [2]: 0.4 | Activity (HeLa [4]): inactive | Activity (HeLa [5]): Dose-dependent effect | Activity (HeLa [6]): Dose-dependent effect | IC50 (HeLa [6]): 0.63 µM | Activity (HeLa [7]): Active | Activity [8]: Non-Toxic | Activity (A549 [9]): Dose-dependent effect | IC50 (A549 [9]): 1.99 µM | Activity (DNA [10]): Dose-dependent effect | Activity [12]: Non-Toxic | Activity (DNA [13]): Non-Toxic | Activity (A549 [15]): Dose-dependent effect | IC50 (A549 [15]): 4.15 µM | Activity (MCF7 [18]): Dose-dependent effect | IC50 (MCF7 [18]): 3.46 µM | Activity [19]: Non-Toxic | Activity (MCF7 [20]): Dose-dependent effect | IC50 (MCF7 [20]): 1.55 µM | Activity (HeLa [22]): Active | Activity (HeLa [23]): Active | Activity (HeLa [25]): Dose-dependent effect | IC50 (HeLa [25]): 1.45 µM

Brc1ccc2cc3c4ccccc4nc(-c4ccco4)c3n2c1
Activity (HeLa [1]): Active | Activity [2]: 0.6 | Activity (HeLa [5]): Dose-dependent effect | Activity (HeLa [6]): Dose-dependent effect | IC50 (HeLa [6]): 0.81 µM | Activity (HeLa [7]): Active | Activity [8]: Toxic | Activity (A549 [9]): Dose-dependent effect | IC50 (A549 [9]): 1.59 µM | Activity (DNA [10]): Dose-dependent effect | Activity [12]: Toxic | Activity (DNA [13]): Non-Toxic | Activity (A549 [15]): Dose-dependent effect | IC50 (A549 [15]): 2.16 µM | Activity (MCF7 [18]): Dose-dependent effect | IC50 (MCF7 [18]): 1.33 µM | Activity [19]: Toxic | Activity (MCF7 [20]): Dose-dependent effect | IC50 (MCF7 [20]): 0.83 µM | Activity (HeLa [22]): Active | Activity (HeLa [23]): Active | Activity (HeLa [25]): Dose-dependent effect | IC50 (HeLa [25]): 1.14 µM

Cc1cccn2c1cc1c3ccccc3nc(-c3ccc(Cl)o3)c12
Activity (HeLa [1]): Active | Activity [2]: 0.38 | Activity (HeLa [5]): Dose-dependent effect | Activity (HeLa [6]): Dose-dependent effect | IC50 (HeLa [6]): 2.07 µM | Activity (HeLa [7]): Active | Activity [8]: Non-Toxic | Activity (A549 [9]): Dose-dependent effect | IC50 (A549 [9]): 1.13 µM | Activity [12]: Non-Toxic | Activity (DNA [13]): Non-Toxic | Activity (A549 [15]): Dose-dependent effect | IC50 (A549 [15]): 1.43 µM | Activity (MCF7 [18]): Dose-dependent effect | IC50 (MCF7 [18]): 0.93 µM | Activity [19]: Non-Toxic | Activity (MCF7 [20]): Dose-dependent effect | IC50 (MCF7 [20]): 0.62 µM | Activity (HeLa [22]): Active | Activity (HeLa [23]): Active | Activity (HeLa [25]): Dose-dependent effect | IC50 (HeLa [25]): 3.51 µM

Clc1ccc(-c2nc3ccccc3c3cc4ccccn4c23)s1
Activity (HeLa [1]): Active | Activity [2]: 0.47 | Activity (HeLa [5]): Dose-dependent effect | Activity (HeLa [6]): Dose-dependent effect | IC50 (HeLa [6]): 0.41 µM | Activity (HeLa [7]): Active | Activity [8]: Non-Toxic | Activity (A549 [9]): Dose-dependent effect | IC50 (A549 [9]): 1.03 µM | Activity [12]: Non-Toxic | Activity (DNA [13]): Non-Toxic | Activity (HeLa [26]): Active | Activity (HeLa [27]): >50% | Activity (A549 [15]): Dose-dependent effect | IC50 (A549 [15]): 1.33 µM | Activity (MCF7 [18]): Dose-dependent effect | IC50 (MCF7 [18]): 1.68 µM | Activity [19]: Non-Toxic | Activity (MCF7 [20]): Dose-dependent effect | IC50 (MCF7 [20]): 1.04 µM | Activity (HeLa [22]): Active | Activity (HeLa [23]): Active | Activity (HeLa [25]): Dose-dependent effect | IC50 (HeLa [25]): 0.49 µM
